# Results published in patent US20110144188A1, “SALTS OF T[…] N-[…] TRIMEBUTINE” (Antibe Therapeutics Inc., priority 2006, published 2011).
# How the values were obtained:
# [1] = test system: abdominal pain in patients with functional bowel disorders; conditions: especially IBS, 300 to 600 mg/day; cited from earlier work
# [2] = test system: rat model of visceral pain perception; test: Rat model of visceral pain perception (colorectal distension, AWR score and colorectal pressure); assay type: in vivo
# Protocol: A rat model of visceral pain perception, a pre-clinical model of irritable bowel syndrome, was used in the following example. Rats (male, Wistar, 200-250 g, obtained from Charles River, Monza, Italy), were housed in plastic cages and maintained under controlled conditions with 12-hours light/dark cycle with lights on at 7.00 AM. Tap water and standard laboratory chow were freely available. Before experiments, rats were individually trained by spending 2-3 hours per day in a plexiglass cage for 2-3 days. It allowed them to adjust to a movement-restriction environment. Food was withheld for 12 hours before colorectal distension (CRD) recording were performed. Experiments were performed in awake rats and were conducted in a blind manner in that the observer was not aware of the identity of drug administered to each animal.
# On the testing day, rats were sedated with ether inhalation and a 2 cm long latex balloon was inserted intrarectally 2 cm from the anal verge and fixed at the base of the tail. The balloon was connected via a double-barreled cannula to a pressure transducer to continuously monitoring the rectal pressure by a computer (PowerLab PC, A.D. Instruments, Milford, Mass., USA) and to a syringe for inflation/deflation of the balloon. The rats were then housed in a small cage (20×8×8 cm) on an elevated Plexiglas™ platform and allowed to wake up and adapt for 1 hour. After recovery from sedation, animals underwent the CRD procedure and behavioral responses were tested. The night before the experiments, the balloons were inflated and left overnight so the latex stretched and the balloons became compliant.
# CRD of 20 seconds, performed every 5 minutes, was applied in increment of 0.4 ml starting from 0.4 ml up to 1.6 ml water. To achieve an accurate measurement of the colonic parameters and perception, the distensions were repeated twice for each intensity and data for each animal were averaged for analysis. Each animal underwent a double set of CRD. Twenty minutes after the first sequence of CRD (0.4 mL-1.6 ml water), drugs were administered intraperitoneally (i.p.) and a second set of CRD was performed. Behavioral responses during the first and the second set of CRD were assessed and compared.
# Behavioral response to CRD was assessed by measuring the abdominal withdrawal reflex (AWR) using a semi-quantitative score (1).
# The effects of trimebutine maleate, nitroarginine and trimebutine nitroargininate on colonic compliance and sensitivity were determined using a total of 15 fasting rats. […]
# To determine the effect of trimebutine maleate, nitroarginine and trimebutine nitroargininate on colonic smooth muscle, the compliance of the colo-rectum during CRD was obtained from intracolo-rectal volume and pressure and expressed as mL/mmHg. […]
compound,measurement,setting,value
NC(=S)c1ccc(C(=O)O)cc1,melting point,,296 to 298 °C (dec.)
"CCC(COC(=O)c1cc(OC)c(OC)c(OC)c1)(c1ccccc1)N(C)C (stereo not drawn) [Trimebutine, 3,4,5-trimethoxybenzoic acid 2-(dimethylamino)-2-phenylbutylester]",treatment of abdominal pain in patients,[1],effective in the treatment of both acute and chronic abdominal pain
CCC(COC(=O)c1cc(OC)c(OC)c(OC)c1)(c1ccccc1)N(C)C.N=C(NCCC[C@H](N)C(=O)O)N[N+](=O)[O-] (stereo not drawn) [trimebutine nitroargininate],reducing visceral pain in response to colorectal distension (AWR score),"[2]; Wistar rats, 16 mg/kg i.p., vs trimebutine maleate 10 mg/kg i.p. and nitroarginine 6 mg/kg, FIGS. 1(a), 2(a), 3(a)",more effective than either trimebutine maleate or nitroarginine
same,visceral analgesic effects (AWR score) after pretreatment with L-NAME,"[2]; rats, 16 mg/kg i.p., L-NAME 25 mg/kg i.v. 10 min before, FIG. 4(a)",largely abolished
same,visceral analgesic effects (AWR score) after pretreatment with methylene blue,"[2]; rats, 16 mg/kg i.p., methylene blue 1 mg/kg i.p. 10 min before, FIG. 4(b)",largely abolished
"CCC(COC(=O)c1cc(OC)c(OC)c(OC)c1)(c1ccccc1)N(C)C.NC(=S)c1ccc(C(=O)O)cc1 (stereo not drawn) [trimebutine thiocarbamoylbenzoate, 3,4,5-trimethoxybenzoic acid 2-(dimethylamino)-2-phenylbutyl ester 4-thiocarbamoyl benzoate]",reducing visceral pain in response to colorectal distension (AWR score),"[2]; rats, dose equimolar to trimebutine maleate 10 mg/kg, vs trimebutine maleate and thiocarbamoylbenzoate alone, FIGS. 5(a), 5(b)",more effective than either trimebutine maleate or thiocarbamoylbenzoate
